Laboratory results from ChEMBL document CHEMBL1139879, “Indolizidine alkaloids with delta-opioid receptor binding affinity from the leaves of Elaeocarpus fuscoides” (J Nat Prod, 2007).

Target: Delta-type opioid receptor (Homo sapiens, UniProt P41143)
Experiment: Displacement of [125I]deltorphin 2 from human recombinant delta opioid receptor expressed in HEK cell membranes
Design: species or system HEK293

Sequence of Delta-type opioid receptor (P41143 whole entry): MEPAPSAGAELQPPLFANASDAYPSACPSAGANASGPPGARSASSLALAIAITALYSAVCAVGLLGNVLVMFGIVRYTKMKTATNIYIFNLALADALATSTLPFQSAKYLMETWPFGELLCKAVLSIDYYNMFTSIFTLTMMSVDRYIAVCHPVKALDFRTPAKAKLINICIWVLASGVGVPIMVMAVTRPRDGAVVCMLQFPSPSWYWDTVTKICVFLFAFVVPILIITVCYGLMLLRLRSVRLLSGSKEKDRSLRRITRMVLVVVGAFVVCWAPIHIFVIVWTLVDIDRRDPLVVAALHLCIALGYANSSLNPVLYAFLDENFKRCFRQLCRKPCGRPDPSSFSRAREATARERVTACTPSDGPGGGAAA

IC50 [µM] | SMILES
86.4 | Cc1cccc2c1C(=O)C1[C@H]3CCCN3CC[C@H]1O2 (some centres undefined) [ELAEOCARPINE]
35.1 | Cc1cccc(O)c1C(=O)[C@@H]1[C@H]2CCCN2CC[C@@H]1O [ISOELAEOCARPICINE]
13.6 | Cc1cccc2c1C(=O)[C@H]1[C@H](CCN3CCC[C@H]13)O2 [ISOELAEOCARPINE]

SMILES | IC50 [µM]
Cc1cccc(O)c1C(=O)C1=CCCN2CCC[C@H]12 [ELAEOCARPENINE] | 2.74
